# “Also recorded” adds a separate entry of the source.
# Columns and labels:
# HDAC4/5/7 [1] = assay: Immunoblot of HDAC phosphorylation in livers of metformin-treated mice; assay type: in vivo; conditions: mouse liver, 250 mg/kg metformin intraperitoneally for 1 h
# Experimental: (D) Immunoblot of lysates from murine livers from LKB1+/+ or LKB1lox/lox mice deleted for hepatic LKB1 and treated with either 250 mg/kg metformin, or saline alone for 1 h.
# To induce Cre-mediated deletion in Albumin-creERT2 mice, mice were intraperitoneally injected with 1 mg/mouse of Tamoxifen (SIGMA) for 5 consecutive days. Ad-Cre mediated deletion in LBK1lox/lox mice was done by tail vein injection of 1×10^9 PFUs/mouse in 8 week old males (FIG. 1D). […] For metformin experiments, mice injected intraperitoneally with 250 mg/kg Metformin in 0.9% saline for 1 h.
# HDAC4/5/7 [2] = assay: Immunoblot of HDAC phosphorylation in primary hepatocytes treated with A769662; assay type: cell-based, mouse; conditions: 1 hr, particularly on the Ser498 sites
# Experimental: (F) Lysates from primary hepatocytes treated with either AMPK agonist A769662 or Vehicle (DMSO) for 1 hr and immunoblotted with indicated antibodies.
# (§1) Primary hepatocytes were derived from C57BL/6J mice and maintained in serum free Media 199. Cells were transduced 24 hrs after harvesting. Knock-down and over-expression studies in hepatocytes were done by infecting cells at 5 PFUs/cell. All adenoviral shRNA knockdowns were carried out for 72 hrs. For subcellular fractionation, cells were treated as indicated, washed 3 times with PBS and lysed utilizing NE-PER Cell Fractionation Kit (Pierce). Primary hepatocytes were treated with 10 uM Forksolin (Sigma) and 100 nM Glucagon (Novo Nordisk), 100 nM insulin (Lilly) at indicated times.
# G6PAse and PEPCK mRNA = assay: qPCR of G6PAse and PEPCK mRNA in primary hepatocytes pre-treated with MC1568; assay type: cell-based, mouse; conditions: 5 uM MC1568 for 14 hours, then 10 uM Forskolin or 100 nM Glucagon for 4 hrs; normalized to cyclophilin
# Experimental: (§2) Blood glucose was measured on mice fasted for 22 hours (4 hrs following the final treatment).
# as §1
# mRNA from primary hepatocytes was isolated using RNAeasy (Qiagen) kit and reverse transcribed using SuperScript II Reverse Transcriptase. Three samples/mice were used per condition and qPCR was done in technical triplicate for each sample. qPCR reaction was carried out using Syber GreenER (Invitrogen). All qPCR results are representative of 3 separate experiments.
# db/db mice = assay: Blood glucose in db/db mice treated with MC1568; assay type: in vivo, mouse; conditions: 50 mg/kg intraperitoneally once a day for 4 days, fasted for 22 hours (4 hrs after final treatment)
# Experimental: as §2
# HDACs4/5 = assay: Immunoblot of HDAC phosphorylation in HepG2 or Huh7 cells treated with phenformin; assay type: cell-based, human; conditions: 2 mM Phenformin for 1 hr
# Experimental: (C) Lysates of HepG2 or Huh7 cells transfected with indicated siRNA pools and treated with either 2 mM Phenformin or vehicle for 1 hr and subjected to immunoblotting.
# (§3) HEK293T, Huh7, HepG2, C2C12, and U2OS cells were obtained from ATCC. RNAi SMARTpool human LKB1 (Dharmacon) or RNAi negative control (Invitrogen) used at 20 nM final concentration and transfected using RNAiMAX transfection reagent (Invitrogen). Knockdowns were carried out for 72 hrs. Cells were treated with 1 uM TSA or 10 mM NAM (Sigma), Cells were treated with 2 mM AICAR (Toronto Research Chemicals) or 2 mM Phenformin (Sigma).
# FOXO1 = FOXO1 acetylation immunoblot in HEK293T cells treated with TSA; assay type: cell-based; conditions: HEK293T cells with Myc-Foxo1 WT, 1 uM TSA for 2 h
# Experimental: (C) HEK293T cells were transfected with Myc-Foxo1 WT construct and cells were treated with 1 uM TSA and/or 10 mM NAM for 2 h. Cell lysates were immunoblotted with indicated antibodies.
# as §3
# [3] = test system: endogenous Class IIa HDACs; assay: Subcellular fractionation of primary hepatocytes; assay type: cell-based, mouse; conditions: 100 nM Glucagon or 10 uM Forskolin for 1 h
# GFP-HDAC5 = GFP-HDAC5 nuclear translocation in primary mouse hepatocytes (confocal microscopy); assay type: cell-based; conditions: 100 nM glucagon
# HDAC4/5/7 [4] = assay: Immunoblot of HDAC phosphorylation in liver lysates of glucagon-injected mice; assay type: in vivo, mouse; conditions: mice starved 6 h, glucagon for 45 minutes
# Experimental: (A) Mice were starved for 6 h and then treated with saline, glucagon (Gluca) for 45 minutes, or refed for 3 h. Liver lysates were immunoblotted with indicated antibodies.
# HDAC4/5/7 [5] = assay: Immunoblot of HDAC phosphorylation in primary mouse hepatocytes treated with glucagon or forskolin; assay type: cell-based; conditions: 100 nM glucagon or 10 uM forskolin
compound,measurement,setting,value
CN(C)C(=N)N=C(N)N [metformin],Phospho-Ser498 in HDAC4/5/7,HDAC4/5/7 [1],increase in Phospho-Ser498
N#Cc1c(O)c2c(-c3ccc(-c4ccccc4O)cc3)csc2[nH]c1=O [A769662],HDAC4/5/7 phosphorylation,HDAC4/5/7 [2],increased HDAC4/5/7 phosphorylation
Cn1c(/C=C/C(=O)NO)ccc1/C=C/C(=O)c1cccc(F)c1 [MC1568],"expression of G6PAse (mRNA, qPCR)",G6PAse and PEPCK mRNA,suppresses the expression; also recorded: suppression
same,"expression of PEPCK (mRNA, qPCR)",G6PAse and PEPCK mRNA,suppresses the expression; also recorded: suppression
same,blood glucose,db/db mice,lowers blood glucose; also recorded: suppression
[H]/N=C(/N)N/C(=N/[H])NCCc1ccccc1 [phenformin],phosphorylation on Ser498 of HDACs4/5,HDACs4/5,LKB1-dependent increase in phosphorylation
CC(/C=C/C(=O)NO)=C\[C@@H](C)C(=O)c1ccc(N(C)C)cc1 [trichostatin A],FOXO1 acetylation,FOXO1,increased FOXO1 acetylation
glucagon,localization of endogenous Class IIa HDACs,[3],translocate fully into the nucleus
same,time to full nuclear translocation of GFP-tagged HDAC5,GFP-HDAC5,≤ 30 min
same,HDAC4/5/7 phosphorylation in liver,HDAC4/5/7 [4],reduced HDAC4/5/7 phosphorylation
same,endogenous HDAC4/5/7 phosphorylation,HDAC4/5/7 [5],rapid loss of endogenous HDAC4/5/7 phosphorylation

# — patent US20140314788A1, “MODULATION OF HISTONE DEACETYLASES FOR THE TREATMENT OF METABOLIC DISEASE, METHODS AND COMPOSITIONS RELATED THERETO” (Salk Institute for Biological Studies, priority 2010, published 2014)
